Experimental data taken from US20160339022A1, “TREATMENT OF NEUROBLASTOMA WITH HISTONE DEACETYLASE INHIBITORS” (Acetylon Pharmaceuticals Inc., priority 2015, published 2016).
pIC50: −log10 of the molar value.

Key:
[1] = biological target: HDAC2 (Homo sapiens, UniProt Q92769); assay: Biochemical activity of isoform-selective HDAC inhibitors, HDAC2; conditions: biochemical assay
[2] = test system: neuroblastoma cells; assay: Long term growth assay (15, 20, 25 days, Crystal Violet); type: cell-based; conditions: 1 μM of exposure, single agent; FIG. 11
Procedure: Cells were cultured for 15, 20 or 25 days with the indicated treatments. Cells were imaged on an inverted microscope at days 15 and 20. On day 25, the cells were stained with Crystal Violet dye and imaged by cell phone camera Importantly, the combination of ATRA and Compound B suppressed the growth of ATRA-resistant colonies.
Cells were cultured for 15, 20 or 25 days with the indicated treatments. Cells were imaged on an inverted microscope at days 15 and 20. On day 25, the cells were stained with Crystal Violet dye and imaged.
Cells were cultured for 15, 20 or 25 days with the indicated treatments. Cells were imaged on an inverted microscope at days 15 and 20. On day 25, the cells were stained with Crystal Violet dye and imaged. It was observed that the combination activity is mediated by HDAC1/2i.
Neuroblastoma cells were treated with Compound B or the HDAC3-selective inhibitor Compound C in a long term growth assay.

[3] = biological target: HDAC1 (Homo sapiens, UniProt Q13547); assay: Biochemical activity of isoform-selective HDAC inhibitors, HDAC1; conditions: biochemical assay
Sequence of HDAC1 (Q13547 whole entry, canonical isoform): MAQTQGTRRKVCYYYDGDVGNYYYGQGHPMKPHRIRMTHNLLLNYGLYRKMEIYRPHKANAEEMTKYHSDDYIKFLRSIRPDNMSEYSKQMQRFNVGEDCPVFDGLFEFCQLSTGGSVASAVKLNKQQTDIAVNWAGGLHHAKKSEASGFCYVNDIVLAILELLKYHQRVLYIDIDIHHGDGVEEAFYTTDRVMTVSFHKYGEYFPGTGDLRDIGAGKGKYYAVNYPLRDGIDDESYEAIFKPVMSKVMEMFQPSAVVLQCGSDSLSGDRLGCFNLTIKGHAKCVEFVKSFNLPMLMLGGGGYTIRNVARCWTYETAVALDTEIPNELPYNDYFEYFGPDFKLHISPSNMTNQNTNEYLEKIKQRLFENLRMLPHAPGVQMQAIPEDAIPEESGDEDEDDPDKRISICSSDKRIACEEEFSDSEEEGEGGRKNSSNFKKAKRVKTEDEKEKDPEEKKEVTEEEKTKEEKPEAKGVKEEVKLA

[4] = test system: SK-N-BE(2) cells; assay: Cell viability (Promega CellTiter Glo assay); type: cell-based
Procedure: (§1) Cells were cultured for 48 hours at the indicated concentration of drug, and then cell viability was measured by Promega CellTiter Glo assay and caspase activity was measured by Promega Caspase3/7 Glo assay. […] Anti-tumor activity is evident at 3 μM of treatment.

[5] = test system: neuroblastoma cells; assay: Neuroblastoma proliferation, manual cell counts over 7 days; type: cell-based; conditions: 0.75 μM and 2 μM, counted at days 3, 5 and 7
Procedure: Cells were cultured over a 7 day period and manually counted at days 3, 5, and 7.

[6] = test system: neuroblastoma cells; conditions: MTS assay, FIGS. 27 and 28
Procedure: Viable cells were measured in an MTS assay and the combination index (CI) was calculated using the Chou-Talaay method.

[7] = test system: SK-N-BE(2) cells; assay: Caspase activity (Promega Caspase3/7 Glo assay); type: cell-based; conditions: 1 μM, 48 hours
Procedure: as §1

[8] = test system: AKT and c-RAF; assay: Levels of AKT and c-RAF; type: cell-based; conditions: SK-N-BE2 cells; 3 days in culture
Procedure: The levels of AKT and c-RAF were assessed following treatment (SK-N-BE2 cells; 3 days in culture) with DMSO (control), Compound B alone, ATRA alone, and Compound B in combination with ATRA. Activated AKT is increased by ATRA and reduced in the combination setting with Compound B. Compound B as a single agent, and in combination with ATRA, decreases cRAF phosphorylation at residue Ser259.

[9] = test system: neuroblastoma cells; assay: Cell cycle analysis (Click-iT EdU and FxCycle PI/RNase staining); type: cell-based; conditions: 7 days
Procedure: Cells were cultured for 7 days with the indicated treatments and then stained with the Invitrogen Click-iT EdU kit and the Invitrogen FxCycle […] kits to assess frequency of cells in each stage of the cell cycle. […] The effect is enhanced by Compound B in a dose dependent manner.
In combination with ATRA, the effect on p21 is enhanced at concentrations that induce gene expression changes consistent with differentiation. At 7 days of treatment, combination effects are observed on the cell cycle, with a decreasing frequency of s-phase cells and an increasing sub-G1 population (FIG. 6B). […] EDU is increased in cells in s-phase while PI intensity indicates relative levels of DNA. Using these metrics, we illustrate the frequency of cells in the indicated states of the cell cycle.

[10] = test system: SK-N-BE(2) cells; assay: Microarray gene expression and gene set enrichment analysis; type: cell-based, Homo sapiens; conditions: 3 μM Compound B, 1 μM ATRA or combination, microarray 48 hr, fold relative to the DMSO control group
Procedure: Gene expression from cells treated with ATRA single agent and combination of ATRA and HDAC1/2i were assessed at 2 hrs and 48 hrs of treatment (FIG. 12A). […] A function analysis of the data using the Ingenuity IPA platform was performed by Qiagen; overlap is observed in the top hits between treatment groups.
Genes that statistically increase over 2-fold relative to the DMSO control were mapped on a Venn diagram (FIG. 12B).
Neuroblastoma cell line SK-N-BE(2) cells were treated with 3 μM Compound B, 1 μM ATRA, or a combination of both at 37° C. over 2 hours (FIG. 12A) or 48 hours (FIG. 12B) and compared to the solvent (DMSO) control.

[11] = test system: neuroblastoma cells; assay: Morphology changes / dendrite outgrowth by inverted microscope; type: cell-based; conditions: 3, 5 and 7 days
Procedure: Cells were cultured for 3, 5, and 7 days with the indicated treatments. Images were captured on an inverted microscope.

[12] = test system: retinoic acid receptor (RAR); assay: Retinoic acid receptor ChIP-seq; type: cell-based; conditions: 3 μM Compound B, 48 hours
From the text: Retinoic acid receptor active binding sites defined in any individual treatment group by ChIP-seq at 48 hrs after treatment were stacked (y-axis) and aligned to the center of the binding peak (x-axis) (FIG. 13). […] Many of the genes found near region 1 binding sites are involved in regulation of retinoid signaling and are transcription factors that drive differentiation (Table 10).
Regions 1-7 of FIG. 13 are defined relative to DMSO: 1, [Combo] Increased; 2, [ATRA] Increased; 3, [ATRA] [Combo] Increased; 4, [Combo] [ATRA] [Compound B] Increased; 5, [Combo] [ATRA] Decreased; 6, [Compound B] Decreased; and 7, [Compound B] [Combo] [ATRA] Decreased.
Neuroblastoma cell line SK-N-BE(2) cells were treated with 3 μM Compound B, 1 μM ATRA, or a combination of both at 37° C. over 48 hours and compared to the solvent (DMSO) control. Antibodies to pan-retinoic acid receptor were used to pull down DNA associated with the receptor binding and sequenced. Lists of binding regions were mapped to the chromosome and “associated” with a given gene if the binding region was located within 10,000 bp up- or down-stream of the gene in question. Binding regions were represented as a heatmap where the sites were stacked on the y-axis across treatments, the “0” mark on the x-axis is the center of the binding peak and the intensity of signal indicated by color. The bracketed regions are areas of statistical significance relative to the DMSO control as indicated on the plot.
Table 12 lists the genes returned when the following conditions are met: 1) combo peak height >4 fold relative to the DMSO control group, and 2) combo expression >4 fold relative to the DMSO control group.

[13] = test system: SK-N-BE2 cells; assay: Levels of proteins related to cell-cycle progression; type: cell-based; conditions: 3 days in culture
Procedure: The levels of proteins related to cell-cycle progression were assessed following treatment (SK-N-BE2 cells; 3 days in culture) with DMSO (control), Compound B alone, ATRA alone, and Compound B in combination with ATRA. p21 is increased by ATRA and enhanced by Compound B. Cyclin D1 is decreased in the combination setting relative to ATRA as a single agent. CDK2 and CDK4 are decreased in the combination setting with Compound B and ATRA.

[14] = test system: IMR-32 tumors; assay: IMR-32 neuroblastoma tumor growth in NUDE mice; type: in vivo; conditions: IMR-32 tumors in NUDE mice, orally once daily, 5/2 on/off schedule
Procedure: IMR-32 tumors were implanted in NUDE mice and Compound E and retinoic acid was administered orally once daily at the indicated doses on a 5/2 on/off schedule.

[15] = SK-N-BE(2) cells, 1 μM ATRA or combination, fold relative to the DMSO control group

Sequence of HDAC2 (Q92769 whole entry, canonical isoform): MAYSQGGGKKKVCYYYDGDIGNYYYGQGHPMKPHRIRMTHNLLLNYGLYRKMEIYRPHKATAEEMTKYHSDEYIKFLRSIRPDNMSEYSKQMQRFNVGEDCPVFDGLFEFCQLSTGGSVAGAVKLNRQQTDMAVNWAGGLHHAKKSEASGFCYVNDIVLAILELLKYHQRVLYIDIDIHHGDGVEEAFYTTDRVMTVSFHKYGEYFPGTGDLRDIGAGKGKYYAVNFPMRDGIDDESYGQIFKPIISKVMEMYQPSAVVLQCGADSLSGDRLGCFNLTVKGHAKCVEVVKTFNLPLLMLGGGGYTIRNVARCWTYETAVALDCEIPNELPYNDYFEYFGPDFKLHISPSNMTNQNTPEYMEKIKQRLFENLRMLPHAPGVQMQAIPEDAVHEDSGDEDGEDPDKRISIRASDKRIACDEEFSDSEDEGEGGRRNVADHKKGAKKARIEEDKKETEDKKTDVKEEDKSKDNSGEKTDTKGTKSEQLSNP

Nc1cc(F)ccc1NC(=O)c1cnc2c(C3CC3)c(N3CCNCC3)ccc2c1 [Compound C, N-(2-amino-4-fluorophenyl)-8-cyclopropyl-7-(piperazin-1-yl)quinoline-3-carboxamide]
pIC50 [1]: 6.21 | neuroblastoma cell growth in long term growth assay [2]: required higher concentrations to mediate a similar effect | pIC50 [3]: 5.70

O=C(CCCCCCNC(=O)c1cnc(N(c2ccccc2)c2ccccc2Cl)nc1)NO [Compound A, 2-((2-chlorophenyl)(phenyl)amino)-N-(7-(hydroxyamino)-7-oxoheptyl)pyrimidine-5-carboxamide]
cell death ([4]; 1 μM, 48 hours): Minimal | anti-tumor activity ([4]; 3 μM, 48 hours): evident | proliferation, single agent [5]: can suppress proliferation similar to ATRA | cytotoxic effect on neuroblastoma cells as a single agent [6]: has a cytotoxic effect | caspase 3/7 induction [7]: Minimal

CC1=C(/C=C/C(C)=C/C=C/C(C)=C/C(=O)O)C(C)(C)CCC1 [ATRA, all-trans-retinoic acid, reference compound]
activated AKT [8]: increased | effect of added ATRA on HDAC1/2i mediated toxicity ([4]; addition of 1 μM or 3 μM of ATRA to Compound B, FIG. 2A): little effect | cell cycle stage frequency, single agent [9]: reduces s-phase frequency and increases the sub-G1 population | Gene Expression Change, ACSL3 [10]: 1.68 | Gene Expression Change, ATP7A [10]: 4.30 | Gene Expression Change, CDKN1A [10]: 1.25 | Gene Expression Change, CRABP2 [10]: 12.15 | Gene Expression Change, CTSH [10]: 2.40 | Gene Expression Change, CYP26A1 [10]: 7.84 | Gene Expression Change, CYP26B1 [10]: 116.67 | Gene Expression Change, DHRS3 [10]: 24.14 | Gene Expression Change, DUSP6 [10]: 8.59 | Gene Expression Change, ETS1 [10]: 3.50 | Gene Expression Change, HSPA5 [10]: 1.48 | Gene Expression Change, IER3 [10]: 3.75 | Gene Expression Change, NFKBIZ [10]: 2.85 | Gene Expression Change, PCDH18 [10]: 3.98 | Gene Expression Change, PTGER2 [10]: 2.48 | Gene Expression Change, RARB [10]: 3.91 | Gene Expression Change, RET [10]: 10.78 | morphology / dendrite outgrowth [11]: caused the outgrowth of dendrites over time | RAR Binding (Peak Height), ACSL3 [12, 15]: 1.00 | RAR Binding (Peak Height), ATP7A [12, 15]: 4.60 | RAR Binding (Peak Height), CDKN1A [12, 15]: 4.75 | RAR Binding (Peak Height), CRABP2 [12, 15]: 3.15 | RAR Binding (Peak Height), CTSH [12, 15]: 5.42 | RAR Binding (Peak Height), CYP26A1 [12, 15]: 7.00 | RAR Binding (Peak Height), CYP26B1 [12, 15]: 11.50 | RAR Binding (Peak Height), DHRS3 [12, 15]: 7.50 | RAR Binding (Peak Height), DUSP6 [12, 15]: 4.00 | RAR Binding (Peak Height), ETS1 [12, 15]: 3.99 | RAR Binding (Peak Height), HSPA5 [12, 15]: 2.00 | RAR Binding (Peak Height), IER3 [12, 15]: 6.83 | RAR Binding (Peak Height), NFKBIZ [12, 15]: 4.00 | RAR Binding (Peak Height), PCDH18 [12, 15]: 3.50 | RAR Binding (Peak Height), PTGER2 [12, 15]: 2.13 | RAR Binding (Peak Height), RARB [12, 15]: 2.20 | RAR Binding (Peak Height), RET [12, 15]: 8.86 | RAR binding to chromatin ([12]; SK-N-BE(2), 1 μM ATRA, vs DMSO): increased RAR binding | cytotoxic effect on neuroblastoma cells as a single agent [6]: has a cytotoxic effect | p21 level [13]: increased

Nc1ccc(-c2cccs2)cc1NC(=O)c1ccc2nc(N3CCNCC3)ccc2c1 [Compound E]
tumor growth [14]: dose-dependent trend toward reduced tumor growth
